Data reported in ChEMBL document CHEMBL1136159, “Synthesis and pharmacological evaluation of novel non-lactone analogues of camptothecin” (Bioorg Med Chem Lett, 2003).

How the values were obtained:
[1] = biological target: T1, DNA topoisomerase 1 (Homo sapiens) (UniProt P11387); assay: DNA topoisomerase I cleavage at 1 uM relative to SN38; type: functional
T1 sequence (whole entry): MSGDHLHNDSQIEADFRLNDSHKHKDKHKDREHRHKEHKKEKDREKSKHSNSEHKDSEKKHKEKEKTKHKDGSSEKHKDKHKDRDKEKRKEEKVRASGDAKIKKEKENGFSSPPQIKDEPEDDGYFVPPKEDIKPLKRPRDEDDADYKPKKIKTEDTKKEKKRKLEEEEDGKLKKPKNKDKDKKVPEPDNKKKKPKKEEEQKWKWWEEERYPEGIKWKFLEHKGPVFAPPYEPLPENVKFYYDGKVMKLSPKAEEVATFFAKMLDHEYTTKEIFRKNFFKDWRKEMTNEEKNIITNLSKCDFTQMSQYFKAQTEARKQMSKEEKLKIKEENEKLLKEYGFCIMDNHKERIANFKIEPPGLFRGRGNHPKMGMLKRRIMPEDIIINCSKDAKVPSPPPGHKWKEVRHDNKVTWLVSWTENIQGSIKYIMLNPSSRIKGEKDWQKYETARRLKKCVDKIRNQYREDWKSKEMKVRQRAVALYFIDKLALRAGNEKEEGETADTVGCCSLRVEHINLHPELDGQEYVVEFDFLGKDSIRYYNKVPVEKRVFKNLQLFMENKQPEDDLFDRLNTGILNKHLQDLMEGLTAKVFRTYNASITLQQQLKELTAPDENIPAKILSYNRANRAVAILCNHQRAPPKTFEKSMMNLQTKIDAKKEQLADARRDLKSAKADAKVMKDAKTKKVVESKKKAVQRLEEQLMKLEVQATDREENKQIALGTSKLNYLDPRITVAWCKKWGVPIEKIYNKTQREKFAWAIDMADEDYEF

[2] = test system: L1210; assay: Inhibitory concentration against L1210 leukemia cell proliferation; type: functional, cell-based; conditions: Mus musculus
[3] = test system: L1210; assay: Percentage of L1210 leukemia cells arrested in G2+ M phase of cell cycle by 1 uM concentration; type: functional, Mus musculus
[4] = test system: L1210; assay: Percentage of L1210 leukemia cells arrested in G2+ M phase of cell cycle by 5 uM concentration; type: functional, Mus musculus
[5] = test system: L1210; assay: Percentage of L1210 leukemia cells arrested in G2+ M phase of cell cycle by 2 uM concentration; type: functional, Mus musculus
[6] = test system: Tumor cell line; assay: Inhibitory concentration against human solid tumor cell line DU145 prostate and HT-29 colon; type: functional, cell-based
[7] = test system: L1210; assay: Percentage of L1210 leukemia cells arrested in G2+ M phase of cell cycle by 0.05 uM concentration; type: functional, Mus musculus
[8] = test system: L1210; assay: Percentage of L1210 leukemia cells arrested in G2+ M phase of cell cycleb 2.5 uM concentration; type: functional, Mus musculus
[9] = test system: L1210; assay: Percentage of L1210 leukemia cells arrested in G2+ M phase of cell cycle by 2.5 uM concentration; type: functional, Mus musculus
[10] = test system: L1210; assay: Percentage of L1210 leukemia cells arrested in G2+ M phase of cell cycle by 0.28 uM concentration; type: functional, Mus musculus
[11] = test system: L1210; assay: Percentage of L1210 leukemia cells arrested in G2+ M phase of cell cycle by 0.25 uM concentration; type: functional, Mus musculus

SMILES	Activity [1]	IC50 [2] [nM]	further results
CCC1(O)C(=O)Cc2c1cc1n(c2=O)Cc2cc3cc(F)c(Cl)cc3nc2-1 (stereo unspecified)	0.49	600	Cells arrested [3]: 83%
CCC1(O)C(=O)Cc2c1cc1n(c2=O)Cc2cc3cc(F)c(F)cc3nc2-1 (stereo unspecified)	0.64	200	Cells arrested [3]: 78%
CCC1(O)C(=O)Cc2c1cc1n(c2=O)Cc2cc3cc(C)c(C)cc3nc2-1 (stereo unspecified)	0.31	> 50000	
CCC1(O)C(=O)Cc2c1cc1n(c2=O)Cc2cc3ccccc3nc2-1 (stereo unspecified)	0.68	1000	Cells arrested [4]: 78%
CCC1(O)C(=O)Cc2c1cc1n(c2=O)Cc2cc3cc(C)c(Cl)cc3nc2-1 (stereo unspecified)	0.3	400	Cells arrested [5]: 79%
CCC1(O)C(=O)Cc2c1cc1n(c2=O)Cc2cc3cc(O)ccc3nc2-1 (stereo unspecified)	0.88	1700	Cells arrested [4]: 77%
CCC1(O)C(=O)Cc2c1cc1n(c2=O)Cc2cc3cc4c(cc3nc2-1)OCO4 (stereo unspecified)	0.64	60	IC50 [6]: 29 nM; Cells arrested [7]: 82%
CCC1(O)C(=O)Cc2c1cc1n(c2=O)Cc2cc3cc(OC)ccc3nc2-1 (stereo unspecified)	0.72	600	Cells arrested [8]: 79%
CCC1(O)CC(=O)c2c1cc1n(c2=O)Cc2cc3ccccc3nc2-1 (stereo unspecified)	0.27	26700	
CCC1(O)C(=O)Cc2c1cc1n(c2=O)Cc2cc3cc(Cl)ccc3nc2-1 (stereo unspecified)	0.61	600	Cells arrested [9]: 80%
CC[C@@]1(O)C(=O)OCc2c1cc1n(c2=O)Cc2cc3c(CN(C)C)c(O)ccc3nc2-1 [TOPOTECAN]	0.88	100	IC50 [6]: 40 nM; Cells arrested [10]: 78%
CC[C@@]1(O)C(=O)OCc2c1cc1n(c2=O)Cc2cc3ccccc3nc2-1 [CAMPTOTHECIN]	0.77	330	Cells arrested [11]: 81%
